The nature of data set [1]: Metabolic stability in pooled mouse hepatocytes assessed as parent compound remaining after 30 mins. It is filed as ADME, cell-based, Hepatocyte. The settings on record: read-out: Stabilty.
The test system of data set [2] is Mycobacterium tuberculosis. Description: Antimycobacterial activity against Mycobacterium tuberculosis H37Rv assessed as bacterial growth inhibition incubated for 7 days by MABA assay. The settings on record: 168 h, time 7 day. In kind it is functional.
Data set [3] can be described thus: Solubility of the compound in water measured after 20 mins by HPLC analysis. It is filed as physicochemical.
The nature of data set [4]: Metabolic Stability in pooled human hepatocytes assessed as parent compound remaining after 30 mins. The settings on record: read-out: Stabilty. It is filed as ADME, cell-based, Hepatocyte.
The test system of data set [5] is Mycobacterium tuberculosis. Description: Antimycobacterial activity against Mycobacterium tuberculosis H37Rv infected in BALB/c mouse model of acute tuberculosis infection assessed as log change in bacterial burden in mouse lung at 100 mg/kg, po via gavage administered for 3 weeks starting from day 10 post infection and administered 5 times a week (reference value: 4.94 +/-0.06 1og10CFU). In kind it is functional.

Data set [6] in a line: Toxicity in BALB/c mouse infected with Mycobacterium tuberculosis H37Rv assessed as body weight at 100 mg/kg, po via gavage administered for 3 weeks starting from day 10 post infection and administered 5 times a week (reference value: 24.59 +/- 0.61 g). The settings on record: in vivo, 504 h. In kind it is organism-based.
The test system of data set [7] is Mycobacterium tuberculosis. The data set can be described thus: Antimycobacterial activity against Mycobacterium tuberculosis H37Rv infected in BALB/c mouse model of acute tuberculosis infection assessed as log change in bacterial burden in mouse lung at 25 mg/kg, po via gavage administered for 3 weeks starting from day 10 post infection and administered 5 times a week (reference value: 4.94=+/-0.06 1og10CFU). In kind it is functional.

Data set [8] in a line: Toxicity in BALB/c mouse infected with Mycobacterium tuberculosis H37Rv assessed as body weight at 25 mg/kg, po via gavage administered for 3 weeks starting from day 10 post infection and administered 5 times a week (reference value: 24.59 +/- 0.61 g). The settings on record: in vivo, 504 h. In kind it is organism-based.

Broadly, the MIC is the lowest concentration that inhibits growth of the organism. By solubility is commonly meant the dissolved amount per volume that the medium holds. Read a low solubility as little dissolved substance.

Converted amounts (≈) assume the structure as drawn.

As to `O=c1cc(N2CCN(CC3CCCCC3)CC2)sc2c([N+](=O)[O-])cc(C(F)(F)F)cc12`, the results for the remaining at 0.5 h in data set [1] and in data set [4] were 80.6% and 82.4%, respectively. Besides, the MIC in data set [2] is less than 0.016 µg/mL. The molecule further had a solubility at 20 min in data set [3] of less than 0.1 µg/mL.

For `NC1CCC(CN2CCN(c3cc(=O)c4cc(C(F)(F)F)cc([N+](=O)[O-])c4s3)CC2)CC1` (configuration not stated), the remaining at 0.5 h in data set [1] came out at 107%; in data set [4], 83.6%. Besides, the MIC in data set [2] amounted to 0.49 µg/mL (≈ 1.04 µM). This molecule returned a solubility at 20 min in data set [3] of 43.9 µg/mL (≈ 93.3 µM).

With `O=c1cc(N2CCN(CC3CCC(O)CC3)CC2)sc2c([N+](=O)[O-])cc(C(F)(F)F)cc12` (configuration not stated), the remaining at 0.5 h was found to be 51.2% in data set [1] and 72.7% in data set [4]. Besides, the MIC in data set [2] was 0.069 µg/mL (≈ 0.146 µM). For the same molecule, the Activity in data set [5] stood at 4.06 log10CFU; in data set [6] it was 24.75 g. For the same molecule, the concentration in solution in data set [3] (solubility at 20 min) came to 8.3 µg/mL (≈ 17.6 µM).

Consider `NNC(=O)c1ccncc1` [ISONIAZID], for which, in data set [2], the MIC came to 0.039 µg/mL (≈ 0.284 µM). Besides, the figures for the Activity in data set [7] and in data set [8] were 130 log10CFU and 24.66 g, respectively.

The record behind these values is ChEMBL document CHEMBL4825698, “Identification of novel benzothiopyranones with ester and amide motifs derived from active metabolite as promising leads against Mycobacterium tuberculosis” (Eur J Med Chem, 2021).
